Key:
Gal-4NL = target: T1, Gal-4NL (Homo sapiens, UniProt P56470); experiment: competitive ELISA, inhibition of binding of Gal-4NL subunit to immobilized ASF; settings: for IC50: competitive ELISA, Gal-4NL 25 µM, immobilized ASF
T1 construct: designated as Gal-4NL (aa 1-160), and Gal-4CL (aa 169-323), respectively; made in house; host or cells: E. coli Rosetta (DE3) pLysS
T1 sequence (P56470 1-160): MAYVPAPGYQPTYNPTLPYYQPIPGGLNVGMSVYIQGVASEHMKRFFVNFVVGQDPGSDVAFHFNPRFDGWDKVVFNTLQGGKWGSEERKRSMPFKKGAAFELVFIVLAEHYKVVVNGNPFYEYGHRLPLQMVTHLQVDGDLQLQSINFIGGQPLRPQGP
Description: (§1) To design the ELISA method, we first examined the direct binding of the whole Gal-4, Gal-4NL, and Gal-4-CL to standard glycoprotein asialofetuin (ASF, MW 48.4 kDa), which carries up to nine LacNAc epitopes. The ASF was immobilized by hydrophobic interaction in microtiter-plate wells, and the binding of increasing concentrations of Gal-4 proteins was quantified by colorimetric immunodetection using horseradish peroxidase conjugated to an anti-His-tag antibody. The apparent dissociation constants (KD) were calculated from the non-linear regression of the binding curves (Figure 3). […] While for the Gal-4 ELISA measurement we used the concentration of Gal-4 of 2.5 μM, for both subunits, it was 25 μM. […] The Gal-4 proteins were incubated with increasing concentrations of the respective inhibitors, and the concentration-dependent inhibition of the binding to the immobilized ASF was quantified using spectrophotometric colorimetric immunodetection (HRP-conjugated anti-His-tag antibody). The respective half-maximal inhibition constants (IC50) were calculated from the non-linear regression of the sigmoidal curves (Figure 3), and they are shown in Table 2 and Table 3.
(§2) Each incubation step was followed by washing the wells with 3 × 250 µL phosphate-buffered saline (PBS) containing 0.05% Tween® 20. In total, 0.1 µM ASF in PBS (50 µL/well) was coated onto microtiter plates (Nunc Immuno Sorb, ThermoFisher Scientific, Waltham, MA, USA) overnight. After blocking the wells with 2 mg/mL bovine serum albumin (BSA) in PBS buffer (250 µL/well, 1 h), serial dilutions of the inhibitors in PBS buffer containing 2 mM EDTA (EPBS) were incubated with Gal-4 (2.5 µM final dimer concentration) or its subunits, Gal-4CL and Gal-4NL (25 µM final monomer concentration) for 2 h (50 µL/well). The residual bound galectin was labeled with an anti-His-antibody conjugated with horseradish peroxidase (HRP) (Santa Cruz Biotechnology, Heidelberg, Germany; 1:999 dilution in PBS). The colorimetric reaction with TMB One substrate solution (Kem-En-Tec, Taastrup, Denmark; 50 µL/well) was stopped with 3 M hydrochloric acid (HCl) (50 µL/well) and quantified spectrophotometrically at 450 nm (Sunrise; Tecan Group Ltd., Männedorf, Switzerland). The values of half-maximal inhibitory concentrations (IC50) were calculated by non-linear regression (dose–response inhibition-variable slope) of sigmoidal curves from a minimum of three independent experiments using GraphPad Prism 8.4.3 (GraphPad Software, San Diego, CA, USA).

Gal-4CL = target: T2, Gal-4CL (Homo sapiens, UniProt P56470); experiment: competitive ELISA, inhibition of binding of Gal-4CL subunit to immobilized ASF; settings: for IC50: competitive ELISA, Gal-4CL 25 µM, immobilized ASF
T2 construct: designated as Gal-4NL (aa 1-160), and Gal-4CL (aa 169-323), respectively; made in house; host or cells: E. coli Rosetta (DE3) pLysS
T2 sequence (P56470 169-323): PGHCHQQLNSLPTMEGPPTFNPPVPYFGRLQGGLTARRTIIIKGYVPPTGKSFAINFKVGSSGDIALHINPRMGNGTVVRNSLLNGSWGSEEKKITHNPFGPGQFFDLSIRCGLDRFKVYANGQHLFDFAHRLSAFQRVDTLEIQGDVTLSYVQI
Description: as §1, §2

Gal-4 = target: T3, Gal-4 (Homo sapiens, UniProt P56470); experiment: competitive ELISA, inhibition of binding of whole Gal-4 to immobilized ASF; settings: for IC50: competitive ELISA, Gal-4 2.5 µM, immobilized ASF; for rp, relative potency (IC50 (lactose)/IC50 (ligand)): whole Gal-4
T3 construct: made in house; host or cells: Escherichia coli Rosetta (DE3) pLysS
T3 sequence (P56470 1-323): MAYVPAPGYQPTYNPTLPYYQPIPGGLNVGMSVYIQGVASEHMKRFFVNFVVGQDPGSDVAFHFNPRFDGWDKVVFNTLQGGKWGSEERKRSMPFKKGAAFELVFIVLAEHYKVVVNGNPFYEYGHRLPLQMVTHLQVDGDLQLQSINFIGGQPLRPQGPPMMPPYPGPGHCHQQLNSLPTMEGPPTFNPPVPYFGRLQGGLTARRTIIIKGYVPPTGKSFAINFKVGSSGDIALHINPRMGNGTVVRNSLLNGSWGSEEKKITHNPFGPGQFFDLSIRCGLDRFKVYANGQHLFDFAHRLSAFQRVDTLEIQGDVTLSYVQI
Description: as §1, §2

rp Gal-4NL, relative potency (IC50 (lactose)/IC50 (ligand)) (Gal-4NL) | IC50 (Gal-4NL) [µM] | rp Gal-4CL, relative potency (IC50 (lactose)/IC50 (ligand)) (Gal-4CL) | IC50 (Gal-4CL) [µM] | IC50 (Gal-4) [µM] | rp, relative potency (IC50 (lactose)/IC50 (ligand)) (Gal-4) | SMILES
0.8 | 3500 ± 200 | 1.5 | 5800 ± 500 | 1180 ± 50 | 2.1 | CC(=O)N[C@H]1C(O)O[C@H](CO)[C@H](O)[C@@H]1O[C@@H]1O[C@H](CO)[C@H](O)[C@H](O)[C@H]1O (stereo partly drawn) [TF antigen motif (9), β-D-galactopyranosyl-(1→3)-2-acetamido-2-deoxy-D-galactopyranose]
7.3 | 400 ± 100 | 10 | 800 ± 300 | 600 ± 100 | 4.1 | CC(=O)N[C@H]1[C@H](O[C@H]2[C@@H](O)[C@@H](CO)O[C@@H](O[C@H]3[C@H](O)[C@@H](O)C(O)O[C@@H]3CO)[C@@H]2O)O[C@H](CO)[C@@H](O[C@@H]2O[C@H](CO)[C@H](O)[C@H](O)[C@H]2O)[C@@H]1O (stereo partly shown) [lacto-N-neotetraose (4), lacto-N-neotetraose]
14 | 210 ± 30 | 18.3 | 470 ± 900 | 430 ± 70 | 5.9 | CC(=O)N[C@H]1[C@H](O[C@H]2[C@@H](O)[C@@H](CO)O[C@@H](O[C@H]3[C@H](O)[C@@H](O)C(O)O[C@@H]3CO)[C@@H]2O)O[C@H](CO)[C@@H](O)[C@@H]1O[C@@H]1O[C@H](CO)[C@H](O)[C@H](O)[C@H]1O (stereo partly shown) [lacto-N-tetraose (3), lacto-N-tetraose]
1.0 | 2900 ± 400 | 1.0 | 8600 ± 1100 | 2500 ± 200 | 1.0 | OC[C@H]1O[C@@H](O[C@H]2[C@H](O)[C@@H](O)[C@H](O)O[C@@H]2CO)[C@H](O)[C@@H](O)[C@H]1O [lactose (1), lactose]
– | – | – | – | 2500 | – | CC(C)(C)OC(=O)NCCNC(=S)N[C@@H]1O[C@H](CO)[C@@H](O[C@@H]2O[C@H](CO)[C@H](O)[C@H](O)[C@H]2O)[C@H](O)[C@H]1O [lactosyl-tBoc 10]

SMILES | rp Gal-4NL, relative potency (IC50 (lactose)/IC50 (ligand)) (Gal-4NL) | IC50 (Gal-4NL) [µM] | rp Gal-4CL, relative potency (IC50 (lactose)/IC50 (ligand)) (Gal-4CL) | IC50 (Gal-4CL) [µM] | IC50 (Gal-4) [µM] | rp, relative potency (IC50 (lactose)/IC50 (ligand)) (Gal-4)
C[C@@H]1O[C@@H](O[C@H]2[C@H](O[C@H]3[C@H](O)[C@@H](O)C(O)O[C@@H]3CO)O[C@H](CO)[C@H](O)[C@@H]2O)[C@@H](O)[C@H](O)[C@@H]1O (stereo partly shown) [2′-fucosyllactose (2), 2′-fucosyllactose] | 4.8 | 600 ± 60 | 7.8 | 1100 ± 100 | 1500 ± 200 | 1.7
